Results: patent US11008313B2, “Substituted 1-methyl-1,2,3,4-tetrahydroisoquinoline molecules as PCSK9 allosteric binders” (Merck Sharp & Dohme Corp., priority 2016, dated 2021)
Read-outs that look alike come from different tables or passages of the source.

What was measured:
[1] = molecular target: PCSK9 (Homo sapiens, UniProt Q8NBP7); assay: Fluorescence polarization competition binding assay (probe: compound of Example 57); conditions: 2 μM PCSK9, 50 nM compound of Example 57 as probe, overnight incubation; read-out: FP IC
Sequence of PCSK9 (Q8NBP7 153-692): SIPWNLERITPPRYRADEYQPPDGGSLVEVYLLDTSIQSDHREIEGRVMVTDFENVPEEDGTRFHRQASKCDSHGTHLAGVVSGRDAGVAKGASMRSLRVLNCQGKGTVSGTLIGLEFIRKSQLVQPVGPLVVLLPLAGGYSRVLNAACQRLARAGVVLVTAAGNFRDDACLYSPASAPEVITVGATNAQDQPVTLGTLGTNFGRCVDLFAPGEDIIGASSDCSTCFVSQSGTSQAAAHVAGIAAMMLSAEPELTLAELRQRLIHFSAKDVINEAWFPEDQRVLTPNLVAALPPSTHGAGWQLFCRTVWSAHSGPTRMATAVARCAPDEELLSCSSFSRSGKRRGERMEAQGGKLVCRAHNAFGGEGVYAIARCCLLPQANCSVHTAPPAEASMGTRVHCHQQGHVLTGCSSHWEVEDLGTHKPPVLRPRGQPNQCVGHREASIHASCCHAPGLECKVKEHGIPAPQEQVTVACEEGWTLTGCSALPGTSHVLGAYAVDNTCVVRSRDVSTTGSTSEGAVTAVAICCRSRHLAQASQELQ
Method in brief: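 Competition fluorescence-polarization binding: 2 μM PCSK9 with 50 nM fluorescent probe in 20 mM HEPES pH 7.5, 150 mM NaCl, 1 mM CaCl2, 0.005% P-20, incubated with test compound overnight in the dark. Anisotropy read; % inhibition relative to DMSO wells and probe-without-PCSK9 wells.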

[2] = molecular target: T1, HEK293 cells stably overexpressing PCSK9 (Homo sapiens, UniProt Q8NBP7); assay: Protein degradation assay (Western Blot/Sally Sue assay); type: cell-based; conditions: 24 hrs compound treatment, serum free DMEM
T1 construct: expressed in transfected cells
Method: Samples were run on the Sally Simple Western system from ProteinSimple (San Jose, Calif.) using default assay conditions. Briefly, 5×10^4 HEK293 cells stably overexpressing PCSK9 were seeded into Collagen I coated 96 well plates and allowed to recover overnight at 37° C. with 5% CO2. After 24 hrs of compound treatment in serum free DMEM cell culture medium, cells were washed with PBS and lysed in 100 ul RIPA buffer (Teknova) supplemented with protease inhibitors and subsequently mixed with fluorescent standards as per manufacturer's specifications, followed by denaturation at 95° C. for 5 minutes. Anti-PCSK9 mAb antibody (Abbomax, Cat. No. 601-650) was used for PCSK9 detection. The reported DC50 values represent the effective concentration of compound to lower PCSK9 protein levels, pro and mature, by 50%.

[3] = mature PCSK9 protein level lowered by 50%, read-out: PCSK9 DC50 (Mature)
[4] = pro PCSK9 protein level lowered by 50%, read-out: PCSK9 DC50 (Pro)
[5] = mature PCSK9 protein level lowered by 50%
[6] = pro PCSK9 protein level lowered by 50%

Row | IC50 [1] | PCSK9 DC50 (Mature) μM [2, 5] | PCSK9 DC50 (Pro) μM [2, 6] | SMILES | DC50 [2, 3] | DC50 [2, 4]
1 | 162 nM | inactive | Inactive | Cc1ncsc1-c1ccc(CNC(=O)[C@@H]2C[C@@H](O)CN2C(=O)[C@@H](NC(=O)COCCOCC(=O)NCCOCCOc2cc3c(cc2Oc2ccc(-c4ccc(C(=O)O)cc4)c(F)c2)[C@@](C)(CC(=O)Nc2nccs2)NCC3)C(C)(C)C)cc1 [Example 102, 2′-fluoro-4′-(((R)-6-(((S)-16-((2S,4R)-4-hydroxy-2-((4-(4-methylthiazol-5-yl)benzyl)carbamoyl)pyrrolidine-1-carbonyl)-17,17-dimethyl-7,14-dioxo-3,9,12-trioxa-6,15-diazaoctadecyl)oxy)-1-methyl-1-(2-oxo-2-(thiazol-2-ylamino)ethyl)-1,2,3,4-tetrahydroisoquinolin-7-yl)oxy)-[1,1′-biphenyl]-4-carboxylic acid] | – | –
2 | 162 nM | inactive | Inactive | Cc1ncsc1-c1ccc(CNC(=O)[C@@H]2C[C@@H](O)CN2C(=O)[C@@H](NC(=O)COCCOCCOCC(=O)NCCOCCOc2cc3c(cc2Oc2ccc(-c4ccc(C(=O)O)cc4)c(F)c2)[C@@](C)(CC(=O)Nc2nccs2)NCC3)C(C)(C)C)cc1 [Example 103, 2′-fluoro-4′-(((R)-6-(((S)-19-((2S,4R)-4-hydroxy-2-((4-(4-methylthiazol-5-yl)benzyl)carbamoyl)pyrrolidine-1-carbonyl)-20,20-dimethyl-7,17-dioxo-3,9,12,15-tetraoxa-6,18-diazahenicosyl)oxy)-1-methyl-1-(2-oxo-2-(thiazol-2-ylamino)ethyl)-1,2,3,4-tetrahydroisoquinolin-7-yl)oxy)-[1,1′-biphenyl]-4-carboxylic acid] | – | –
3 | 831 nM | inactive | Inactive | COC(=O)c1ccc(-c2ccc(Oc3cc4c(cc3OCCOCCNC(=O)COCC(=O)N[C@H](C(=O)N3C[C@H](O)C[C@H]3C(=O)NCc3ccc(-c5scnc5C)cc3)C(C)(C)C)CCN[C@]4(C)CC(=O)Nc3nccs3)cc2F)cc1 [Example 107, methyl 2′-fluoro-4′-(((R)-6-(((S)-13-((2S,4R)-4-hydroxy-2-((4-(4-methylthiazol-5-yl)benzyl)carbamoyl)pyrrolidine-1-carbonyl)-14,14-dimethyl-7,11-dioxo-3,9-dioxa-6,12-diazapentadecyl)oxy)-1-methyl-1-(2-oxo-2-(thiazol-2-ylamino)ethyl)-1,2,3,4-tetrahydroisoquinolin-7-yl)oxy)-[1,1′-biphenyl]-4-carboxylate] | – | –

The remaining lines, values behind:

Row | SMILES | IC50 [1] | PCSK9 DC50 (Mature) μM [2, 5] | PCSK9 DC50 (Pro) μM [2, 6] | DC50 [2, 3] | DC50 [2, 4]
4 | CC(C)(C)OC(=O)/N=C(/NCCC[C@H](NC(=O)OC(C)(C)C)C(=O)NCCOCCOCCOCCOc1cc2c(cc1Oc1ccc(-c3ccc(C(=O)O)cc3)c(F)c1)[C@@](C)(CC(=O)Nc1nccs1)NCC2)NC(=O)OC(C)(C)C [Example 99, 4′-(((R)-6-(((S,Z)-6,11-bis((tert-butoxycarbonyl)amino)-2,2-dimethyl-4,12-dioxo-3,16,19,22-tetraoxa-5,7,13-triazatetracos-5-en-24-yl)oxy)-1-methyl-1-(2-oxo-2-(thiazol-2-ylamino)ethyl)-1,2,3,4-tetrahydroisoquinolin-7-yl)oxy)-2′-fluoro-[1,1′-biphenyl]-4-carboxylic acid] | 718 nM | – | – | 9000 nM | 1370 nM
5 | CC(C)C[C@@H](NC(=O)[C@H](O)[C@@H](N)Cc1ccccc1)C(=O)NCCOCCOc1cc2c(cc1Oc1ccc(-c3ccc(C(=O)O)cc3)c(F)c1)[C@@](C)(CC(=O)Nc1nccs1)NCC2 [Example 100, 4′-(((R)-6-(2-(2-((R)-2-((2R,3S)-3-amino-2-hydroxy-4-phenylbutanamido)-4-methylpentanamido)ethoxy)ethoxy)-1-methyl-1-(2-oxo-2-(thiazol-2-ylamino)ethyl)-1,2,3,4-tetrahydroisoquinolin-7-yl)oxy)-2′-fluoro-[1,1′-biphenyl]-4-carboxylic acid] | 96.4 nM | inactive | Inactive | – | –
6 | COCCOc1cc2c(cc1Oc1ccc(-c3ccc(C(=O)O)cc3)c(F)c1)[C@@](C)(CC(=O)Nc1nccs1)NCC2 [Example 101, (R)-2′-fluoro-4′-((6-(2-methoxyethoxy)-1-methyl-1-(2-oxo-2-(thiazol-2-ylamino)ethyl)-1,2,3,4-tetrahydroisoquinolin-7-yl)oxy)-[1,1′-biphenyl]-4-carboxylic acid] | 130 nM | inactive | Inactive | – | –
7 | C[C@]1(CC(=O)Nc2nccs2)NCCc2cc(OCCOCCNC(=O)CC34CC5CC(CC(C5)C3)C4)c(Oc3ccc(-c4ccc(C(=O)O)cc4)c(F)c3)cc21 [Example 104, 4′-(((R)-6-(2-(2-(2-((3r,5r,7r)-adamantan-1-yl)acetamido)ethoxy)ethoxy)-1-methyl-1-(2-oxo-2-(thiazol-2-ylamino)ethyl)-1,2,3,4-tetrahydroisoquinolin-7-yl)oxy)-2′-fluoro-[1,1′-biphenyl]-4-carboxylic acid] | 222 nM | – | – | 7520 nM | 1530 nM
8 | CC(C)(C)OC(=O)/N=C(/NCCC[C@@H](NC(=O)OC(C)(C)C)C(=O)NCCOCCOc1cc2c(cc1Oc1ccc(-c3ccc(C(=O)O)cc3)c(F)c1)[C@@](C)(CC(=O)Nc1nccs1)NCC2)NC(=O)OC(C)(C)C [Example 106, 4′-(((R)-6-(((R,Z)-6,11-bis((tert-butoxycarbonyl)amino)-2,2-dimethyl-4,12-dioxo-3,16-dioxa-5,7,13-triazaoctadec-5-en-18-yl)oxy)-1-methyl-1-(2-oxo-2-(thiazol-2-ylamino)ethyl)-1,2,3,4-tetrahydroisoquinolin-7-yl)oxy)-2′-fluoro-[1,1′-biphenyl]-4-carboxylic acid] | 655 nM | – | – | 3420 nM | 4820 nM
9 | CC(C)Cc1ccc([C@H](C)C(=O)NCCOCCOc2cc3c(cc2Oc2ccc(-c4ccc(C(=O)O)cc4)c(F)c2)[C@@](C)(CC(=O)Nc2nccs2)NCC3)cc1 [Example 108] | 578 nM | inactive | Inactive | – | –
